This passage reports log10CFU/ml and MBC results from ChEMBL document CHEMBL1275534, “Is 60 days of ciprofloxacin administration necessary for postexposure prophylaxis for Bacillus anthracis?” (Antimicrob Agents Chemother, 2008).

In brackets after ≈: the same amount, converted by molar mass.

The subject of experiment [1] is Bacillus anthracis. The experiment is described as follows: Effect on growth of pX01 and pX02 deficient Bacillus anthracis delta-Sterne infected in hollow-fiber pharmacodynamic model assessed as maximal vegetative plus spore phase population size at 500 mg every 12 hrs. In kind it is functional.
The subject of experiment [2] is Bacillus anthracis. The experiment is described as follows: Antibacterial activity against pX01 and pX02 deficient Bacillus anthracis delta-Sterne after 24 hrs. The format is functional.

The MBC is the smallest concentration meeting the test's criterion for killing. Lower therefore signals greater bactericidal potency. Regarding `O=C(O)c1cn(C2CC2)c2cc(N3CCNCC3)c(F)cc2c1=O` [CIPROFLOXACIN], in the experiment with Bacillus anthracis [1], the log10CFU/ml is recorded as 554300000. This compound also came in with a minimal bactericidal concentration (MBC) in the experiment with Bacillus anthracis [2] of 1 µg/mL (≈ 3.02 µM).
